In PMC7822874, “Chemoprotective antimalarials identified through quantitative high-throughput screening of Plasmodium blood and liver stage parasites” (Scientific Reports, 2021):
“And” between values parts separate entries of the source, which are not always exact repeats. Equal entries are not always repeated. Where two headings read alike, the source gives them in different places.

Assays:
[1] = target: Firefly luciferase (Fluc, EC 1.13.12.7) (Photinus pyralis, UniProt P08659); experiment: biochemical; design: single determination (the paper says generally: 'qHTS assays were performed in a single replicate with a 7- to 11-point dose response format'; it is not stated for this counterscreen itself)
Firefly luciferase (Fluc, EC 1.13.12.7), sequence (P08659 whole entry): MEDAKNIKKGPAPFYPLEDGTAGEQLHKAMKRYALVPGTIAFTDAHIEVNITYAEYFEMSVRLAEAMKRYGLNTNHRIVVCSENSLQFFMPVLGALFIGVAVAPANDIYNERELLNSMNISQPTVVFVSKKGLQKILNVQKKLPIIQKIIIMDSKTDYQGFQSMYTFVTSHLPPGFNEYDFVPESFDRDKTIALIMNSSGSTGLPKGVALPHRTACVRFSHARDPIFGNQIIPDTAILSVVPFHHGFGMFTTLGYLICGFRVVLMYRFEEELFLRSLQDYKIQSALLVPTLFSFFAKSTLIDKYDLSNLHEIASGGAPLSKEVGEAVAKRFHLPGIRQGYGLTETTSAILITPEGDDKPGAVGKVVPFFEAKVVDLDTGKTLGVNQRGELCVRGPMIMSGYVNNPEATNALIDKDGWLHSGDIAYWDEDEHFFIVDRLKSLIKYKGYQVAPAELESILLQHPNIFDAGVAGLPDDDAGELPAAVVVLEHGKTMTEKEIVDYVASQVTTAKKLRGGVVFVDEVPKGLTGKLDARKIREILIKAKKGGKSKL

[2] = test system: Plasmodium falciparum Dd2 asexual blood stage parasites; experiment: microbe, parasite or virus in culture; design: species or system Plasmodium falciparum Dd2 in human erythrocytes; single determination (one 11-point concentration-response curve); conditions: Plasmodium falciparum, DD2, Erythrocyte, 72 h; read-out: AC50
[3] = test system: T1, Plasmodium falciparum Dd2-attB (parental line), asexual blood stages; experiment: microbe, parasite or virus in culture; design: species or system P. falciparum Dd2-attB in human erythrocytes; SYBR Green-I proliferation assay, Dd2-attB parental line, asexual blood stages; conditions: Plasmodium falciparum, DD2, Erythrocyte, 72 h, read-out: Calculated / Average Log AC50 (M), mean of replicates, 72 h (converted)
T1 construct: Dd2-attB, the isogenic parental line

[4] = test system: T2, Plasmodium falciparum Dd2-attB-ScDHODH (transgenic line expressing yeast DHODH), asexual blood stages; experiment: organism not typed; design: replicate k of 3 (each line is one of three independent assays; the three lines of one compound and parasite line follow each other); conditions: 72 h, n = 1; for AC50: read-out: Individual replicates / Log AC50 (converted)
T2 construct: Dd2-attB-ScDHODH, the transgenic line that expresses yeast DHODH
Method in brief: (§1)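 We compare activity in parasites carrying fumarate-using yeast DHODH with that in the parental line; mETC or parasite DHODH inhibitors are bypassed by this enzyme. Data come from three independent assays, analysed by two-sided Student's t-tests.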

[5] = test system: luciferase-expressing P. berghei liver stage parasites in HepG2 cells; experiment: Inhibition of liver-stage development assay (ILSDA), Method 2 (WRAIR, 96-well); type: cell-based, Plasmodium berghei
[6] = test system: T1, Plasmodium falciparum Dd2-attB (parental line), asexual blood stages; experiment: microbe, parasite or virus in culture; design: replicate k of 3 (each line is one of three independent assays; the three lines of one compound and parasite line follow each other); conditions: n = 1; for Individual replicates / Log AC50 (M): 72 h; for AC50: Plasmodium falciparum, DD2, 72 h, read-out: Individual replicates / Log AC50 (converted)
Method in brief: as §1

[7] = test system: P. berghei-ANKA-GFP-LucCON liver stage parasites in HepG2-A16-CD81EGFP cells; experiment: P. berghei liver stage Pb-Luc assay, Method 1 (UCSD, 1536-well); type: cell-based, Plasmodium berghei; conditions: Method 1; for Max Resp (signal direction of the dose response): Decrease = decreasing P. berghei viability with dose, Increase = increasing signal, Inactive = no dose response
[8] = test system: P. falciparum Dd2 Cytb V259L; experiment: SYBR Green ABS proliferation assay, NCGC00473217 selected clone F06; type: cell-based, Plasmodium falciparum; conditions: Plasmodium falciparum
Method in brief: (§2)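 Asexual blood-stage proliferation of cytochrome b-mutant Dd2 clones after 72 h compound exposure at 37 °C in low-oxygen gas, quantified as control-normalized SYBR Green-I fluorescence; differences tested by two-sided t-test.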

[9] = test system: P. falciparum Dd2 Cytb G131S; experiment: SYBR Green ABS proliferation assay, NCGC00374598 selected clone C11; type: cell-based, Plasmodium falciparum; conditions: Plasmodium falciparum, DD2, […]; averaged from three independent replicates; top concentration 29 µM; read-out: Average AC50 (Log[M]), NCGC00374598 clone C11 (Cytb G131S) (converted)
Method in brief: as §2

[10] = test system: P. falciparum Dd2 (clone B2) asexual blood stage parasites; experiment: P. falciparum Dd2 asexual blood stage SYBR Green-I 72 h proliferation assay (qHTS); type: cell-based, Plasmodium falciparum; conditions: Plasmodium falciparum, DD2, Dd2 parental; Hill fit, averaged from three independent replicates; top concentration 29 µM; read-out: Average AC50 (Log[M]), Dd2 (converted)
[11] = test system: P. falciparum Dd2 Cytb A122D; experiment: SYBR Green ABS proliferation assay, NCGC00473217 selected clone F12; type: cell-based, Plasmodium falciparum; conditions: Plasmodium falciparum, DD2, […]; averaged from three independent replicates; top concentration 29 µM; read-out: Average AC50 (Log[M]), NCGC00473217 clone F12 (Cytb A122D) (converted)
Method in brief: as §2

[12] = test system: P. falciparum Dd2 Cytb F123L; experiment: SYBR Green ABS proliferation assay, NCGC00473217 selected clone G08; type: cell-based, Plasmodium falciparum; conditions: Plasmodium falciparum
Method in brief: as §2

[13] = Hill fit, 50% of maximum activity response, read-out: AC50
[14] = log10 of molar AC50 from Hill fit
[15] = Plasmodium berghei, Hill fit, 50% of maximum activity response, read-out: AC50
[16] = Plasmodium berghei, log10 of molar AC50 from Hill fit, read-out: Log AC50 (converted)

| SMILES | AC50 [1] | AC50 [3] | Individual replicates / Log AC50 (M) [4] | Individual replicates / Log AC50 (M) [6] | AC50 [6] | AC50 [4] | other results |
| --- | --- | --- | --- | --- | --- | --- | --- |
| O=C(NC1CCCCC1)c1[nH]nc2c1CCCCC2 [MLS002178094-01] | 4.82 µM | – | – | – | – | – | – |
| CCc1ccc2oc(-c3cccc(NC(=O)c4ccc(-c5cccc([N+](=O)[O-])c5)o4)c3)nc2c1 [NCGC00102150-01] | 15.2 µM | – | – | – | – | – | – |
| Cc1ccc(C(=O)NCCn2c(C)cc3ccccc32)cc1C [NCGC00107199-01] | 4.3 µM | – | – | – | – | – | – |
| O=C1C(c2ccc(C(F)(F)F)cc2)=C(Nc2ccc(Cl)cc2)c2ccccc21 [NCGC00107304-01] | – | 7.1e-07 M | -5.0986 Log AC50 (M) and -5.1486 Log AC50 (M) and -5.3986 Log AC50 (M) | -6.0986 Log AC50 (M) | 0.564 µM | – | AC50 [2]: 1.5 µM; Max Resp (signal direction of the dose response) ([5]; Method 2, Decrease = decreasing P. berghei viability with dose, Increase = increasing signal, Inactive = no dose response): Inactive; Max Resp (signal direction of the dose response) [7]: Decrease; AC50 [7, 13]: 0.282 µM; Log AC50 (M) [7, 14]: -6.550 M; AC50 [7, 15]: 0.158 µM; AC50 [7, 16]: 0.158 µM |
| Cc1cn2c(=O)cc(COC(=O)c3cccc(NC(=O)COc4ccccc4Cl)c3)nc2s1 [NCGC00130619-01] | 0.0341 µM | – | – | – | – | – | – |
| O=C1c2cnc(-c3cc4ccccc4o3)nc2OCCN1Cc1ccccc1 [NCGC00413600-01] | 11.1 µM | – | – | – | – | – | – |
| O=C(Cc1ccc(O)cc1)N1CC(CNc2ccccc2)C2(C1)CN(c1ccccc1)C2 (centres unmarked) [NCGC00415859-01] | – | 1.63e-07 M | -6.4873 Log AC50 (M) and -6.7373 Log AC50 (M) and -6.8873 Log AC50 (M) | -6.8373 Log AC50 (M) and -6.9373 Log AC50 (M) and -6.5873 Log AC50 (M) | – | – | AC50 [2]: 0.243 µM; Activity direction (Decrease / Inactive) ([5]; P. berghei liver stage, Method 2, dose response): Inactive; Max Resp (signal direction of the dose response) [7]: Decrease; AC50 [7, 13]: 0.631 µM; Log AC50 (M) [7, 14]: -6.200 M; AC50 [7, 15]: 0.447 µM; AC50 [7, 16]: 0.447 µM |
| COc1ccc(NC(=O)c2cccc3c2CCN3C(=O)Nc2ccc(F)cc2)c(C)c1 [NCGC00430188-01] | 7.64 µM | – | – | – | – | – | – |
| O=C(NCCC1=CCCCC1)C1CCN(C(=O)c2ncn3c2COC(c2ccccc2)C3)CC1 (centres unmarked) [NCGC00449771-01] | 21.5 µM | – | – | – | – | – | – |
| CCOc1ccc(NC(=O)c2ccc3c(c2)N(C)C2CCCN2C3=O)cc1 (centres unmarked) [NCGC00452128-01] | 21.5 µM | – | – | – | – | – | – |
| CC(C)(C)OC(=O)NC1CCN(c2cc(-c3ccc(Cl)cc3)[nH]n2)C1 (centres unmarked) [NCGC00490648-01] | – | 1.59e-05 M | – | – | 11.3 µM | 10 µM | – |
| CCN(CCN(C)C)C(=O)c1cc(OCc2ccc(Cl)cc2C)n(-c2cc(C#N)ccn2)n1 [NCGC00493248-01] | – | 1.04e-05 M | -4.9486 Log AC50 (M) and -4.8486 Log AC50 (M) | -5.0486 Log AC50 (M) and -5.0986 Log AC50 (M) | 15.9 µM | 11.3 µM | – |
| CC(C)OC(=O)c1ccnc2cc(C(OCCN3CCCCC3)c3cccc(NC(=O)/C=C/CN(C)C)c3)sc12 (centres unmarked) [NCGC00493268-01] | – | 3.3e-06 M | -5.4486 Log AC50 (M) and -5.1486 Log AC50 (M) | -5.5986 Log AC50 (M) and -5.5486 Log AC50 (M) | 5.03 µM | – | – |
| Cc1nn2c(c1-c1ccccc1Oc1ccccc1)N(Cc1ccccc1)CCC2 [NCGC00499717-01] | – | 1.42e-05 M | -4.7986 Log AC50 (M) | -4.9986 Log AC50 (M) and -4.7486 Log AC50 (M) | 15.9 µM | 15.9 µM | – |
| CCCN1C(CC(C)C)=N[S+](=O)([O-])c2cc(NC(=O)C3CC3)ccc21 [NCGC00510045-01] | – | 1.22e-06 M | -5.2986 Log AC50 (M) and -5.4486 Log AC50 (M) | -5.8486 Log AC50 (M) | 0.894 µM | 3.99 µM | AC50 ([8]; DD2, […], averaged from three independent replicates, top concentration 29 µM, read-out: Average AC50 (Log[M]), NCGC00473217 clone F06 (Cytb V259L) (converted)): 3.05e-06 M; AC50 [9]: 3.99e-06 M; AC50 [10]: 4.32e-06 M; AC50 [11]: 4.32e-06 M; AC50 ([12]; DD2, […], averaged from three independent replicates, top concentration 29 µM, read-out: Average AC50 (Log[M]), NCGC00473217 clone G08 (Cytb F123L) (converted)): 1.12e-05 M |
| O=C1c2ccccc2C(=O)C1c1ccc(C(F)(F)F)cc1 [NCGC00510065-01] | – | 1.36e-05 M | -4.6986 Log AC50 (M) and -4.7486 Log AC50 (M) | -4.7486 Log AC50 (M) (2×) and -5.0986 Log AC50 (M) | – | 17.8 µM | – |
| CC(C)(C)OC(=O)N1CCc2nc(C3CC3)nc(O)c2CC1 [NCGC00510066-01] | – | 8.94e-06 M | – | – | – | – | AC50 ([8]; DD2, cytochrome b mutant line, third value triple, c9, […], read-out: log AC50, mean (converted)): 8.93e-09 M; AC50 ([12]; DD2, cytochrome b mutant line, fifth value triple, c15, […], read-out: log AC50, mean (converted)): 2.99e-06 M |
| CCCN1C(CC(C)C)=N[S+](=O)([O-])c2cc(NC(=O)c3ccccc3)ccc21 [NCGC00510420-01] | – | 4.48e-07 M | -6.0486 Log AC50 (M) and -5.5486 Log AC50 (M) and -5.8486 Log AC50 (M) | -6.5486 Log AC50 (M) and -6.1986 Log AC50 (M) and -6.2986 Log AC50 (M) | – | – | – |
| O=C(Cc1ccc(O)cc1)N1CCC2(C1)CN(c1ccccc1)C2 [NCGC00510421-01] | – | 1.26e-05 M | -4.7986 Log AC50 (M) and -4.7486 Log AC50 (M) | -4.9486 Log AC50 (M) | 14.2 µM | 14.2 µM | – |
